According to patent US12071408B2, “Multi-targeted tyrosine kinase inhibitors effective in antitumor uses” (Shanghai AB PharmaTech Ltd., priority 2021, dated 2024):
Where “and” joins values, the source holds several entries; their conditions need not be identical. Equal entries are not always repeated. Where two headings read alike, the source gives them in different places.

Legend:
[1] = tested on: leukemia cell line (K562); assay: Tumor cell proliferation inhibition (CTG, 72 h); assay type: cell-based; settings: Homo sapiens; K562 cells, class; read-out: K562 activity effect range (IC50)
rats [2] = assay: 28-day GLP toxicity test; assay type: in vivo; settings: 50, 100, 150 mg/kg once a day by gavage, 28 days
Protocol: The 28-day GLP toxicity test also used healthy rats at three doses (50 mg/kg, 100 mg/kg, 150 mg/kg), and the three groups of rats were administered once a day by gavage, and the toxicity of the test substance was evaluated by observing the toxicity response of the experimental animals for 28 consecutive days. […] Therefore, the preferred compound “III-01” designed and synthesized by the present invention not only has better inhibitory activity, but also has better safety and drug-forming properties, which is worthy of further clinical trials and application.

FGFR3 = FGFR3 (Homo sapiens (Human), UniProt P22607); assay: Kinase inhibition, Mobility-Shift Assay; assay type: biochemical; settings: read-out: FGFR-3 IC50
FGFR3, sequence (P22607 23-806): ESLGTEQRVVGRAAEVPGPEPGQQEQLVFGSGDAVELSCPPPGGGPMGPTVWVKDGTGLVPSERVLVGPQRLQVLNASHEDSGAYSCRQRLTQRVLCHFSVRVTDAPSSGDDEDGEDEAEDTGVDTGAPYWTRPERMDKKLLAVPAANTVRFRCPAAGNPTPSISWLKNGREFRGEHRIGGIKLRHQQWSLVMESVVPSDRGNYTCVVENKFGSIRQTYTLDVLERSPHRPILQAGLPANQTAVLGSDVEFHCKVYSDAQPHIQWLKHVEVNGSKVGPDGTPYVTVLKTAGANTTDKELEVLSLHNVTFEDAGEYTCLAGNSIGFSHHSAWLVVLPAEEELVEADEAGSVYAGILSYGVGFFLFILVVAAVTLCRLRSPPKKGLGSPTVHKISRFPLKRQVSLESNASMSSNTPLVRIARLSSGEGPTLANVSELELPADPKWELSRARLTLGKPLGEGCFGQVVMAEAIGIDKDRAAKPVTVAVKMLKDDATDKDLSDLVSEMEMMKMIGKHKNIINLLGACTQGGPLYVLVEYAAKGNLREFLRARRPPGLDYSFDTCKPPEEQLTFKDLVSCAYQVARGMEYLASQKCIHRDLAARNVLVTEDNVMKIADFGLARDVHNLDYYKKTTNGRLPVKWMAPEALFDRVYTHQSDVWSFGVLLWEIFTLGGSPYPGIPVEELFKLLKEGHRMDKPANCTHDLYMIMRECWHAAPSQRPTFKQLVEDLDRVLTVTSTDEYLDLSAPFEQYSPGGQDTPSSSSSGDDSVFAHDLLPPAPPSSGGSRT
Protocol: In this experiment, the inhibitory effects of small molecule inhibitors on 17 kinases were examined by using fluorescent microfluidic mobility shift assay (Mobility-Shift Assay).
2. Compounds were configured in 100% DMSO in a concentration gradient and diluted with buffer to 10% DMSO, and added to 384-well plates. Compounds starting at […] are prepared in 100% DMSO to 25 μM and diluted in a gradient of 10 concentrations, then diluted 10-fold in buffer to make an intermediate dilution of the compound containing 10% DMSO and transferred 5 μl to a 384-well plate. 3. The kinase was diluted to optimal concentration with the following buffers: 50 mM HEPES, pH 7.5, 0.00015% Brij-35, 2 mM DTT (final concentration of enzyme reaction: VEGFR-1 (FLT1): 2 nM; VEGFR-2 (KDR): 1.2 nM; VEGFR-3 (FLT4): 1.5 nM; FGFR1: 2 nM); FGFR2: 9 nM; FGFR3: 8 nM; FGFR4: 10 nM; PDGFRα: 3.5 nM; c-MET: 10 nM; RET: 7 nM; EGFR: 6 nM). Transfer 10 μl into a 384-well plate and incubate with the compounds for 10 min. 4. […] Read the conversion rate with Caliper Reader and calculate the conversion rate as suppression, formula Percent inhIcition=(max−conversion)/(max−min)*100. […]

[3] = tested on: hepatocellular carcinoma cell line (Hep3B 2.1-7); assay: Tumor cell proliferation inhibition (CTG, 72 h); assay type: cell-based; settings: Homo sapiens; Hep3B 2.1-7 cells, class; read-out: Hep3B 2.1-7 range of activity (IC50)
FGFR1 = FGFR1 (Homo sapiens (Human), UniProt P11362); assay: Kinase inhibition, Mobility-Shift Assay; assay type: biochemical; settings: read-out: FGFR-1 IC50
ABL = ABL (Homo sapiens (Human), UniProt P00519); assay: Kinase inhibition, Mobility-Shift Assay; assay type: biochemical
[4] = tested on: cervical cancer cell line (Hela); assay: Tumor cell proliferation inhibition (CTG, 72 h); assay type: cell-based; settings: Homo sapiens; Hela cells, class; read-out: Hela activity effect range (IC50)
rats [5] = assay: MTD toxicity test in rats; settings: rat, in vivo, 300 mg/kg
[6] = MTD toxicity test in rats; settings: rat, in vivo
hERG potassium channels = hERG potassium channels (Homo sapiens (Human), UniProt Q12809); assay: hERG in vitro inhibition, whole-cell patch clamp; assay type: cell-based; settings: in vitro hERG current inhibition
RET = RET (Homo sapiens (Human), UniProt P07949); assay: Kinase inhibition, Mobility-Shift Assay; assay type: biochemical
C-MET = C-MET (Homo sapiens (Human), UniProt P08581); assay: Kinase inhibition, Mobility-Shift Assay; assay type: biochemical
[7] = tested on: bladder cancer cell line (RT112/84); assay: Tumor cell proliferation inhibition (CTG, 72 h); assay type: cell-based; settings: Homo sapiens
FGFR4 = FGFR4 (Homo sapiens (Human), UniProt P22455); assay: Kinase inhibition, Mobility-Shift Assay; assay type: biochemical
FGFR4, sequence (P22455 22-802): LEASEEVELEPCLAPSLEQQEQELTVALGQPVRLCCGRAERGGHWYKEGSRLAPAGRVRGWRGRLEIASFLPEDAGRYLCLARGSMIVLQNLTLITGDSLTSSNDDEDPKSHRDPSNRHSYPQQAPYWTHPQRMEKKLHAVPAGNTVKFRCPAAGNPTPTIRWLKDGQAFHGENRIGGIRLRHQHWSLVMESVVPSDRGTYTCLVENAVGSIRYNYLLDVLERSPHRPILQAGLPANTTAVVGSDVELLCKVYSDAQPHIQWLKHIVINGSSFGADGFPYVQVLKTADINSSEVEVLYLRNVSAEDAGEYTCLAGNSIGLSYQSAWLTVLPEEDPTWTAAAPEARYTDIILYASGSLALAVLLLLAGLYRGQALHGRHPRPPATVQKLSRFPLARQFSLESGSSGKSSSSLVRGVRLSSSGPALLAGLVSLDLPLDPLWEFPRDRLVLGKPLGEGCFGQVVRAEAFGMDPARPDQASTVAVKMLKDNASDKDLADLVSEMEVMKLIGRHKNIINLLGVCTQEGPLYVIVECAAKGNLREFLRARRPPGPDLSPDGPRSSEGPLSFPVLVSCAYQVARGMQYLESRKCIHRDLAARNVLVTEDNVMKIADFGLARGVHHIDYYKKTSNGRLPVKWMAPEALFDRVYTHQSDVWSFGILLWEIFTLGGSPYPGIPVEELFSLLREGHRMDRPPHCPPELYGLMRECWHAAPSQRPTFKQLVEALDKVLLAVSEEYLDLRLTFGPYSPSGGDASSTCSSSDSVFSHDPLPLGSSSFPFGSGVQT

VEGFR-3 (FLT4) = VEGFR-3 (FLT4) (Homo sapiens (Human), UniProt P35916); assay: Kinase inhibition, Mobility-Shift Assay; assay type: biochemical
EGFR = EGFR (Homo sapiens (Human), UniProt P00533); assay: Kinase inhibition, Mobility-Shift Assay; assay type: biochemical
EGFR, sequence (P00533 25-1210): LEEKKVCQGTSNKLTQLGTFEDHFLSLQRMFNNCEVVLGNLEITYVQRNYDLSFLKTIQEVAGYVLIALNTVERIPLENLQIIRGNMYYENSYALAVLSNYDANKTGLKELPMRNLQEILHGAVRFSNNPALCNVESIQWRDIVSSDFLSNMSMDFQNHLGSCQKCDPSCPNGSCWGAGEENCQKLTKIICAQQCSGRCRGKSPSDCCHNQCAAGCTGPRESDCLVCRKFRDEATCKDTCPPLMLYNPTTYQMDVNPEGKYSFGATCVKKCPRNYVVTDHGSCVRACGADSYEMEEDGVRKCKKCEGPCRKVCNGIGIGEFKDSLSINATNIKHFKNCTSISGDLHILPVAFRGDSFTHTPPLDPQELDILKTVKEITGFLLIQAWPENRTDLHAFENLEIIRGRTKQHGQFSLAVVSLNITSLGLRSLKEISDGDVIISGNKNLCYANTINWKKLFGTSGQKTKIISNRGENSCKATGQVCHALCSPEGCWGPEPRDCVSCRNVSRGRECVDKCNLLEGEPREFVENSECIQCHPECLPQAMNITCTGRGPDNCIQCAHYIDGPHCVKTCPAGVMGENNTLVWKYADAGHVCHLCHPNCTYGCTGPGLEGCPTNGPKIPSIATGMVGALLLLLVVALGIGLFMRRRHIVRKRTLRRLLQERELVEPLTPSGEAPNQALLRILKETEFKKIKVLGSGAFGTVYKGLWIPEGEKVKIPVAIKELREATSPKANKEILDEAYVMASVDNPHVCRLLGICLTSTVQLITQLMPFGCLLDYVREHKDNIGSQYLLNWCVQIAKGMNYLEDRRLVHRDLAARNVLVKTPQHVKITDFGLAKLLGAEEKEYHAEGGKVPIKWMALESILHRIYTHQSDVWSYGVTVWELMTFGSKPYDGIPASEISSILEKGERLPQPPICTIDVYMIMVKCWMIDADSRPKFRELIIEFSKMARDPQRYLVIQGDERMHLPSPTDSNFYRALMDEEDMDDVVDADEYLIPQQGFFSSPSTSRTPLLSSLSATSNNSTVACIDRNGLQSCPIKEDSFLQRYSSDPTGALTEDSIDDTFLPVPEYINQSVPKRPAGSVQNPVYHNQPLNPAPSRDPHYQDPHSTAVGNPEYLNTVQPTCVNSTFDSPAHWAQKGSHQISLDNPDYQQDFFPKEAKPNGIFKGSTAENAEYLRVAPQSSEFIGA

FGFR2 = FGFR2 (Homo sapiens (Human), UniProt P21802); assay: Kinase inhibition, Mobility-Shift Assay; assay type: biochemical
FGFR2, sequence (P21802 22-821): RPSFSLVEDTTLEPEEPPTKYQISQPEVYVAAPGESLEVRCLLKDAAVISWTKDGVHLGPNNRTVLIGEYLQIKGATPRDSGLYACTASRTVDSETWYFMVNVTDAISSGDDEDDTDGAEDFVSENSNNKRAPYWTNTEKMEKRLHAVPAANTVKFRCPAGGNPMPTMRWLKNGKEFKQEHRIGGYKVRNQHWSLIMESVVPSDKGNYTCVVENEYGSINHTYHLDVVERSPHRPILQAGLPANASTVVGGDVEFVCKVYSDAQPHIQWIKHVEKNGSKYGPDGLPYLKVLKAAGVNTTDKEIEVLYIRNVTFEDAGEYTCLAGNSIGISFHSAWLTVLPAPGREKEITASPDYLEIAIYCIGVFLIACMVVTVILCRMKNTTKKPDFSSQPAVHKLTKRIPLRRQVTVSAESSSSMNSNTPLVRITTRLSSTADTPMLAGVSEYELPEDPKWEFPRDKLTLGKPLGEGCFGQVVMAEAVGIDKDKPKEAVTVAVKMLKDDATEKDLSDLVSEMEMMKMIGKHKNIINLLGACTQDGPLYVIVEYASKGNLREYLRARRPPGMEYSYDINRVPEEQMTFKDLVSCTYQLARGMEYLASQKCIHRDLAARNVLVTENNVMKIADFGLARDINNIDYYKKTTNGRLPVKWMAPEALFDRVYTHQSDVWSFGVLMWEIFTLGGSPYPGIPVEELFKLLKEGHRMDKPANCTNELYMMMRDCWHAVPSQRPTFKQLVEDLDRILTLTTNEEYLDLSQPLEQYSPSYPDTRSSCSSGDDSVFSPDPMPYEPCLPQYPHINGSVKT

[8] = tested on: thyroid cancer cell line (TT); assay: Tumor cell proliferation inhibition (CTG, 72 h); assay type: cell-based
VEGFR-2 (KDR) = VEGFR-2 (KDR) (Homo sapiens (Human), UniProt P35968); assay: Kinase inhibition, Mobility-Shift Assay; assay type: biochemical
VEGFR-2 (KDR), sequence (P35968 20-1356): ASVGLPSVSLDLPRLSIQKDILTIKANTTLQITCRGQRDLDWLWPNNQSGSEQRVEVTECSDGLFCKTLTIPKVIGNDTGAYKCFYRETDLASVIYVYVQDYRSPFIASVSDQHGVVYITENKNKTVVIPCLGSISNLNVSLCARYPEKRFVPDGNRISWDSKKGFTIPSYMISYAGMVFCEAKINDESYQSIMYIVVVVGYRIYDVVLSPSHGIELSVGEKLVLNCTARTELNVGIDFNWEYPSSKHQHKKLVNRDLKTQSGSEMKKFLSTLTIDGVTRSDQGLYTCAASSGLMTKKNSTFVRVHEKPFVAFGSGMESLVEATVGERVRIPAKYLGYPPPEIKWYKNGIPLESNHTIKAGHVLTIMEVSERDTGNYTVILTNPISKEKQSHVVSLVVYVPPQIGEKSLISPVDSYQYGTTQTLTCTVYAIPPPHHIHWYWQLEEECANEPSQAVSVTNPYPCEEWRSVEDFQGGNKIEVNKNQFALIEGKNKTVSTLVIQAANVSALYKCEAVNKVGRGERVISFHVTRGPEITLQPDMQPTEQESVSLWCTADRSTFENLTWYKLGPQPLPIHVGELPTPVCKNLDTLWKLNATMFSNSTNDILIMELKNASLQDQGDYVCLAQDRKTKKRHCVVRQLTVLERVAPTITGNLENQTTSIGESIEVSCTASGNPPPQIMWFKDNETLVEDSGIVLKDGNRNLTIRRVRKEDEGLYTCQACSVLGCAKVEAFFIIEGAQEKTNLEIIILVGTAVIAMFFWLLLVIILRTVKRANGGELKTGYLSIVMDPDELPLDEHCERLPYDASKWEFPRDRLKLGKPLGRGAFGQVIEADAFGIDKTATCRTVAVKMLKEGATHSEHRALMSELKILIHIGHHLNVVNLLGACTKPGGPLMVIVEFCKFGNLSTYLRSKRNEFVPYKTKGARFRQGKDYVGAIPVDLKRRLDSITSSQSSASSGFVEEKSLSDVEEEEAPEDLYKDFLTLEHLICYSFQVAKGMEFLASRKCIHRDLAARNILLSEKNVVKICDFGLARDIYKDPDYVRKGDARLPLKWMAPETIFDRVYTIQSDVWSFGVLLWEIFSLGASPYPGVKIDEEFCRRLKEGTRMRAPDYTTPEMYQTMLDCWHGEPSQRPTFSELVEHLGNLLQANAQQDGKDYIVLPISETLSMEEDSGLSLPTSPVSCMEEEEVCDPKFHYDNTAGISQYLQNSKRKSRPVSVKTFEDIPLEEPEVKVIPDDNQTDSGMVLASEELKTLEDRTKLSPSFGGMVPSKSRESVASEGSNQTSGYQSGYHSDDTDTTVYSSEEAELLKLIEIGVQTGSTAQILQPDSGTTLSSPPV

PDGFRα = PDGFRα (Homo sapiens (Human), UniProt P16234); assay: Kinase inhibition, Mobility-Shift Assay; assay type: biochemical
VEGFR-1 (FLT1) = VEGFR-1 (FLT1) (Homo sapiens (Human), UniProt P17948); assay: Kinase inhibition, Mobility-Shift Assay; assay type: biochemical
[9] = class, read-out: C-MET range of activity (IC50)
[10] = RT112/84 bladder cancer cells, 72 h, read-out: RT112/84 (uM), inhibitory activity IC50
[11] = RT112/84 cells, class, read-out: RT112/84 range of activity (IC50)
[12] = class, read-out: FGFR4 range of activity effects (IC50)
[13] = class, read-out: EGFR range of activity (IC50)
[14] = class, read-out: FGFR2 range of activity effects (IC50)
[15] = Homo sapiens, TT cells, class, read-out: TT range of activity (IC50)
[16] = TT thyroid cancer cells, 72 h, read-out: TT (uM), inhibitory activity IC50
[17] = class, read-out: KDR activity effect range (IC50)

Row | Compound | IC50 [1] | IC50 (FGFR3) | IC50 [3] | IC50 (FGFR1) | IC50 (ABL) | IC50 [4] | IC50 (hERG potassium channels) | IC50 (C-MET; [9]) | IC50 (C-MET; read-out: C-MET IC50) | IC50 [7, 10] | IC50 [7, 11] | IC50 (FGFR4; [12]) | IC50 (FGFR4; read-out: FGFR-4 IC50) | IC50 (VEGFR-3 (FLT4)) | IC50 (EGFR; [13]) | IC50 (EGFR; read-out: EGFR IC50) | IC50 (FGFR2; [14]) | IC50 (FGFR2; read-out: FGFR-2 IC50) | IC50 [8, 15] | IC50 [8, 16] | also measured
1 | COc1cc2nccc(Oc3c(F)cc(NC(=O)NC4CC4)c(Cl)c3F)c2cc1C(N)=O [III-01] | 5 to 10 µM | 0.022 µM | < 2.5 µM | 0.014 µM | 0.068 µM | 5 to 10 µM | > 30 µM | 0.06 to 0.1 µM | 0.096 µM | 0.13 µM | < 0.2 µM | < 0.03 µM | 0.017 µM | 0.0011 µM | < 0.06 µM | 0.058 µM and 0.053 µM | < 0.03 µM | 0.011 µM | < 5 µM | 1.5 µM | Ames assay (Ames assay): negative; Autopsy results, 28-day GLP toxicity test (rats [2]): did not reveal any abnormal changes; Observation at MTD dose (rats [5]): without any abnormalities such as death; MTD ([6]; 300 mg/kg, rats, read-out: MTD toxicity dose): 300 mg/kg; MTD ([6]; rats, read-out: MTD toxicity dose): > 300 mg/kg; IC50 (RET): 0.0025 µM; IC50 (VEGFR-2 (KDR); [17]): < 0.002 µM; IC50 (VEGFR-2 (KDR); read-out: VEGFR-2 (KDR) IC50): 0.0006 µM; IC50 (PDGFRα): 0.0079 µM; IC50 (VEGFR-1 (FLT1)): 0.0037 µM
2 | COc1cc2nccc(Oc3c(F)c(N(C)C)c(NC(=O)NC4CC4)c(N(C)C)c3F)c2cc1C(N)=O [III-52] | > 10 µM | – | > 5 µM | – | – | > 10 µM | – | > 0.1 µM | – | – | > 1 µM | > 0.1 µM | – | – | > 0.1 µM | – | > 0.1 µM | – | > 10 µM | – | IC50 (VEGFR-2 (KDR); [17]): > 0.01 µM
3 | COc1cc2nccc(Oc3ccc(NC(=O)NC4CC4)c(Cl)c3)c2cc1C(N)=O [Lenvatinib, reference compound] | – | 0.059 µM | – | 0.056 µM | – | – | – | > 0.1 µM | > 1 µM | 0.29 µM | 0.2 to 1 µM | 0.03 to 0.1 µM | 0.065 µM | 0.0032 µM | – | – | 0.03 to 0.1 µM | 0.027 µM | > 10 µM | > 10 µM | MTD [6]: 40 mg/kg; IC50 (PDGFRα): 0.027 µM
4 | COc1cc2nccc(Oc3ccc(NC(=O)NC4CC4)c(Cl)c3F)c2cc1C(N)=O [Ref-2, reference compound] | – | – | – | – | – | – | 15.4 µM | – | – | 0.42 µM | – | – | 0.039 µM | – | – | > 1 µM | – | – | – | 6.4 µM | IC50 (VEGFR-2 (KDR); read-out: VEGFR-2 (KDR) IC50): 0.0086 µM
5 | CNC(=O)c1cc(Oc2ccc(NC(=O)Nc3ccc(Cl)c(C(F)(F)F)c3)c(F)c2)ccn1 [Regorafenib, reference compound] | – | 0.062 µM | – | – | > 0.5 µM | – | – | > 0.1 µM | > 1 µM | – | 0.2 to 1 µM | > 0.1 µM | > 0.5 µM | – | > 0.1 µM | > 1 µM | – | – | > 10 µM | – | –
